In assay [1] the test system is HCV replicon in HUH-7 cells. Kind of assay: HCV replicon FRET assay. In kind it is cell-based, Hepatitis C virus (strain 1b). The settings on record: HCV replicon cell assay, HUH-7, read-out: EC50 Range. An excerpt: Generation of HCV Replicon
An HCV replicon whole cell system was established as described by Lohmann V, Korner F, Koch J, Herian U, Theilmann L, Bartenschlager R., Science 285(5424):110-3 (1999). This system enabled us to evaluate the effects of our HCV Protease compounds on HCV RNA replication. Briefly, using the HCV strain 1b sequence described in the Lohmann paper (Assession number:AJ238799), an HCV cDNA was synthesized by Operon Technologies, Inc. (Alameda, Calif.), and the full-length replicon was then assembled in plasmid pGem9zf(+) (Promega, Madison, Wis.) using standard molecular biology techniques. The replicon consists of (i) the HCV 5′ UTR fused to the first 12 amino acids of the capsid protein, (ii) the neomycin phosphotransferase gene (neo), (iii) the IRES from encephalomyocarditis virus (EMCV), and (iv) HCV NS3 to NS5B genes and the HCV 3′ UTR. Plasmid DNAs were linearized with ScaI and RNA transcripts were synthesized in vitro using the T7 MegaScript transcription kit (Ambion, Austin, Tex.) according to manufacturer's directions. In vitro transcripts of the cDNA were transfected into the human hepatoma cell line, HUH-7. […] Resulting cell lines were characterized for positive and negative strand RNA production and protein production over time.
The HCV replicon FRET assay was developed to monitor the inhibitory effects of compounds described in the disclosure on HCV viral replication. HUH-7 cells, constitutively expressing the HCV replicon, were grown in Dulbecco's Modified Eagle Media (DMEM) (Gibco-BRL) containing 10% Fetal calf serum (FCS) (Sigma) and 1 mg/mL G418 (Gibco-BRL). Cells were seeded the night before (1.5×10^4 cells/well) in 96-well tissue-culture sterile plates. Compound and no compound controls were prepared in DMEM containing 4% FCS, 1:100 Penicillin/Streptomysin (Gibco-BRL), 1:100 L-glutamine and 5% DMSO in the dilution plate (0.5% DMSO final concentration in the assay). Compound/DMSO mixes were added to the cells and incubated for 4 days at 37° C. After 4 days, cells were first assessed for cytotoxicity using alamar Blue (Trek Diagnotstic Systems) for a CC50 reading. The toxicity of compound (CC50) was determined by adding 1/10th volume of alamar Blue to the media incubating the cells. After 4 h, the fluorescence signal from each well was read, with an excitation wavelength at 530 nm and an emission wavelength of 580 nm, using the Cytofluor Series 4000 (Perspective Biosystems). Plates were then rinsed thoroughly with Phosphate-Buffered Saline (PBS) (3 times 150 μl).

Assay [2] concerns the target T1, HCV NS3/4A protease complex, BMS strain (UniProt P27958, species not given/STRAIN_BMS).
T1 construct: DNA encoding the recombinant HCV NS3/4A protease complex (amino acids 1027 to 1711) for these strains [H77 and J4L6S]; fused on or other part: For the H77 and J4L6S constructs, a three-lysine solubilising tail at the NS4A C-terminus and a Ni-NTA-purifiable tag from pET21b
Briefly: FRET peptide assay to monitor HCV NS3/4A proteolytic activity (BMS strain). Type of assay: biochemical, Hepatitis C virus (genotype 1a). The text has this: Generation of Recombinant HCV NS3/4A Protease Complex
HCV NS3 protease complexes, derived from the BMS strain, H77 strain or J4L6S strain, were generated, as described below. These purified recombinant proteins were generated for use in a homogeneous assay (see below) to provide an indication of how effective compounds of the present disclosure would be in inhibiting HCV NS3 proteolytic activity.
Serum from an HCV-infected patient was obtained from Dr. T. Wright, San Francisco Hospital. An engineered full-length cDNA (compliment deoxyribonucleic acid) template of the HCV genome (BMS strain) was constructed from DNA fragments obtained by reverse transcription-PCR (RT-PCR) of serum RNA (ribonucleic acid) and using primers selected on the basis of homology between other genotype 1a strains. From the determination of the entire genome sequence, a genotype 1a was assigned to the HCV isolate according to the classification of Simmonds et al. (See P Simmonds, K A Rose, S Graham, S W Chan, F McOmish, B C Dow, E A Follett, P L Yap and H Marsden, J. Clin. Microbiol., 31(6), 1493-1503 (1993)). […] The infectious clones, H77 (1a genotype) and J4L6S (1b genotype) were obtained from R. Purcell (NIH) and the sequences are published in Genbank (AAB67036, see Yanagi, M., Purcell, R. H., Emerson, S. U. and Bukh, J. Proc. Natl. Acad. Sci. U.S.A. 94(16), 8738-8743 (1997); AF054247, see Yanagi, M., St Claire, M., Shapiro, M., Emerson, S. U., Purcell, R. H. and Bukh, J, Virology 244 (1), 161-172. (1998)).
The H77 and J4L6S strains were used for production of recombinant NS3/4A protease complexes. DNA encoding the recombinant HCV NS3/4A protease complex (amino acids 1027 to 1711) for these strains were manipulated as described by P. Gallinari et al. (see Gallinari P, Paolini C, Brennan D, Nardi C, Steinkuhler C, De Francesco R. Biochemistry. 38(17):5620-32, (1999)). Briefly, a three-lysine solubilizing tail was added at the 3′-end of the NS4A coding region. The cysteine in the P1 position of the NS4A-NS4B cleavage site (amino acid 1711) was changed to a glycine to avoid the proteolytic cleavage of the lysine tag. Furthermore, a cysteine to serine mutation was introduced by PCR at amino acid position 1454 to prevent the autolytic cleavage in the NS3 helicase domain. The variant DNA fragment was cloned in the pET21b bacterial expression vector (Novagen) and the NS3/4A complex was expressed in Escherichia coli strain BL21 (DE3) (Invitrogen) following the protocol described by P. Gallinari et al. (see Gallinari P, Brennan D, Nardi C, Brunetti M, Tomei L, Steinkuhler C, De Francesco R., J. Virol. 72(8):6758-69 (1998)) with modifications. Briefly, the NS3/4A protease complex expression was induced with 0.5 millimolar (mM) Isopropyl β-D-1-thiogalactopyranoside (IPTG) for 22 hours (h) at 20° C. A typical fermentation (1 Liter (L)) yielded approximately 10 grams (g) of wet cell paste. The cells were resuspended in lysis buffer (10 mL/g) consisting of 25 mM N-(2-Hydroxyethyl)piperazine-N′-(2-Ethane Sulfonic acid) (HEPES), pH 7.5, 20% glycerol, 500 mM Sodium Chloride (NaCl), 0.5% Triton X-100, 1 microgram/milliliter (“μg/mL”) lysozyme, 5 mM Magnesium Chloride (MgCl2), 1 μg/mL DnaseI, 5 mM β-Mercaptoethanol (βME), Protease inhibitor—Ethylenediamine Tetraacetic acid (EDTA) free (Roche), homogenized and incubated for 20 minutes (min) at 4° C. The homogenate was sonicated and clarified by ultra-centrifugation at 235000 g for 1 h at 4° C. Imidazole was added to the supernatant to a final concentration of 15 mM and the pH adjusted to 8.0. The crude protein extract was loaded on a Nickel—Nitrilotriacetic acid (Ni-NTA) column pre-equilibrated with buffer B (25 mM HEPES, pH 8.0, 20% glycerol, 500 mM NaCl, 0.5% Triton X-100, 15 mM imidazole, 5 mM βME). The sample was loaded at a flow rate of 1 mL/min. The column was washed with 15 column volumes of buffer C (same as buffer B except with 0.2% Triton X-100). […]

[3] abbreviates: read-out: IC 50 Range; NS3/4A BMS strain, enzyme assay.
Setting [4] is: NS3/4A BMS strain, enzyme assay; read-out: IC 50 Range.

Molecules are shown by their SMILES. Where two headings read alike, the source gives them in different places.

T1 sequence (P27958 1027-1657, stated change not applied, one chain of several): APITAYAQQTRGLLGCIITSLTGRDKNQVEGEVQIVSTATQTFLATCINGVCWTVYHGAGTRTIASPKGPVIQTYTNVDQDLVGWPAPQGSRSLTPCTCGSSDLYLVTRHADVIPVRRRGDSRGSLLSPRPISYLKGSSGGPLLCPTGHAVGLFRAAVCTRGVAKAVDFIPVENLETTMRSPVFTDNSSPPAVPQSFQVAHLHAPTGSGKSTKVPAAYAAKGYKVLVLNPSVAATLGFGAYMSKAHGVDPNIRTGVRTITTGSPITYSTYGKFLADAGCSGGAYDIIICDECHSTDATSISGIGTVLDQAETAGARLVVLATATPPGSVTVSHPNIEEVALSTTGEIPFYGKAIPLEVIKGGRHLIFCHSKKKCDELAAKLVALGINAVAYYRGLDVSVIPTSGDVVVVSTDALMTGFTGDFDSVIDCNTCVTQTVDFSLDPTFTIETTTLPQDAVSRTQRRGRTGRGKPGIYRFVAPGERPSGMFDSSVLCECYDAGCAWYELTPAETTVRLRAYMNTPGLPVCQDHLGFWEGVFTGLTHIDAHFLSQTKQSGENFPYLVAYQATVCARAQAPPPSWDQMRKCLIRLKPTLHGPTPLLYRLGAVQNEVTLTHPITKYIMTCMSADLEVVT

A word on the EC50: it is the concentration that produces a half-maximal response. Take `C=CC1CC1(NC(=O)[C@@H]1C[C@@H](NC(=O)OCC2c3ccccc3-c3ccccc32)CN1C(=O)[C@@H](NC(=O)OC(C)(C)C)C(C)(C)C)C(=O)NS(=O)(=O)C1CC1` (mixture of isomers) [Compound 5, [1-(2-tert-butoxycarbonylamino-3,3-dimethyl-butyryl)-5-(1-cyclopropanesulfonylaminocarbonyl-2-vinyl-cyclopropylcarbamoyl)-pyrrolidin-3-yl]-carbamic acid 9H-fluoren-9-ylmethyl ester]: the EC50 in assay [1] (Hepatitis C virus) was 0.15 to 15 µM. Also, the IC50 in assay [2] (setting [3]) was in the range of 0.15 to 15 µM.

Consider `C=CC1CC1(NC(=O)[C@@H]1C[C@@H](NC(=O)c2sc3ccccc3c2Cl)CN1C(=O)[C@@H](NC(=O)CC1CC1)C(C)(C)C)C(=O)O` (single isomer, unassigned) [Compound 1, 1-({4-[(3-Chloro-benzo[b]thiophene-2-carbonyl)-amino]-1-[2-(2-cyclopropyl-acetylamino)-3,3-dimethyl-butyryl]-pyrrolidine-2-carbonyl}-amino)-2-vinyl-cyclopropanecarboxylic acid], for which the IC50 in assay [2] (setting [4]) was in the range of 0.15 to 15 µM.

In the case of `C=CC1CC1(NC(=O)[C@@H]1C[C@@H](NC(=O)c2sc3ccccc3c2Cl)CN1C(=O)[C@@H](NC(=O)CC1CC1)C(C)(C)C)C(=O)O` (single isomer, unassigned) [Compound 2, 1-({4-[(3-Chloro-benzo[b]thiophene-2-carbonyl)-amino]-1-[2-(2-cyclopropyl-acetylamino)-3,3-dimethyl-butyryl]-pyrrolidine-2-carbonyl}-amino)-2-vinyl-cyclopropanecarboxylic acid], in assay [2] (setting [4]), the IC50 was greater than 15 µM.

As for `C=CC1CC1(NC(=O)[C@@H]1C[C@@H](NC(=O)c2sc3ccccc3c2Cl)CN1C(=O)[C@@H](NC(=O)CC1CC1)C(C)(C)C)C(=O)NS(=O)(=O)C1CC1` (single isomer, unassigned) [Compound 3], in assay [1] (Hepatitis C virus), the EC50 lay in the range of 0.15 to 15 µM. The IC50 in assay [2] (setting [4]) is less than 0.15 µM.

For the compound `C=CC1CC1(NC(=O)[C@@H]1C[C@@H](NC(=O)c2sc3ccccc3c2Cl)CN1C(=O)[C@@H](NC(=O)CC1CC1)C(C)(C)C)C(=O)NS(=O)(=O)C1CC1` (single isomer, unassigned) [Compound 4], the concentration for a half-maximal effect (EC50) in assay [1] lay in the range of 0.15 to 15 µM. Besides, the IC50 in assay [2] (setting [4]) was less than 0.15 µM.

As to `C=CC1CC1(NC(=O)[C@@H]1CC(NC(=O)c2cc(-c3ccccc3)nc3ccccc23)CN1C(=O)[C@@H](NC(=O)OC(C)(C)C)C(C)(C)C)C(=O)NS(=O)(=O)C1CC1` (some centres unmarked) [Compound 6], the EC50 in assay [1] (Hepatitis C virus) fell in the range of 0.15 to 15 µM. Moreover, in assay [2] (setting [4]), the IC50 was less than 0.15 µM.

Turning to `C=CC1CC1(NC(=O)[C@@H]1C[C@@H](NC(=O)OCC2c3ccccc3-c3ccccc32)CN1C(=O)[C@@H](NC(=O)CC1CC1)C(C)(C)C)C(=O)NS(=O)(=O)C1CC1` (some centres unmarked) [Compound 7], the EC50 in assay [1] (Hepatitis C virus) was greater than 15 µM. Further, the IC50 in assay [2] (setting [4]) fell in the range of 0.15 to 15 µM.

For `C=CC1CC1(NC(=O)[C@@H]1C[C@@H](NC(=O)c2ccnc3ccccc23)CN1C(=O)[C@@H](NC(=O)CC1CC1)C(C)(C)C)C(=O)NS(=O)(=O)C1CC1` (some centres unmarked) [Compound 10], the EC50 in assay [1] (Hepatitis C virus) is greater than 15 µM. In addition, the IC50 in assay [2] (setting [4]) was 0.15 to 15 µM.

Take `C=CC1CC1(NC(=O)[C@@H]1C[C@@H](NC(=O)c2ccnc3ccccc23)CN1C(=O)[C@@H](NC(=O)CC1CC1)C(C)(C)C)C(=O)NS(=O)(=O)C1CC1` (some centres unmarked) [Compound 11]: the IC50 in assay [2] (setting [4]) fell in the range of 0.15 to 15 µM.

As for `C=CC1CC1(NC(=O)[C@@H]1C[C@@H](NC(=O)c2ccncc2)CN1C(=O)[C@@H](NC(=O)CC1CC1)C(C)(C)C)C(=O)NS(=O)(=O)C1CC1` (some centres unmarked) [Compound 15], in assay [2] (setting [4]), the IC50 is 0.15 to 15 µM.

In the case of `C=CC1CC1(NC(=O)[C@@H]1C[C@@H](NC(=O)c2cnc(N3CCCCC3)nc2-c2ccccc2)CN1C(=O)[C@@H](NC(=O)CC1CC1)C(C)(C)C)C(=O)NS(=O)(=O)C1CC1` (some centres unmarked) [Compound 23], the IC50 in assay [2] (setting [4]) fell in the range of 0.15 to 15 µM.

Turning to `C=CC1CC1(NC(=O)[C@@H]1C[C@@H](NC(=O)c2c(OC)cccc2OC)CN1C(=O)[C@@H](NC(=O)CC1CC1)C(C)(C)C)C(=O)NS(=O)(=O)C1CC1` (some centres unmarked) [Compound 36], the IC50 in assay [2] (setting [4]) was in the range of 0.15 to 15 µM.

As for `C=CC1CC1(NC(=O)[C@@H]1C[C@@H](N(C)C(=O)c2cc(-c3ccccc3)nc3ccccc23)CN1C(=O)[C@@H](NC(=O)OC(C)(C)C)C(C)(C)C)C(=O)NS(=O)(=O)C1CC1` (some centres unmarked) [Compound 42], in assay [2] (setting [4]), the IC50 was 0.15 to 15 µM.

As to `C=CC1CC1(NC(=O)[C@@H]1C[C@@H](NC(=S)Nc2cccc3ccccc23)CN1C(=O)[C@@H](NC(=O)OC(C)(C)C)C(C)(C)C)C(=O)NS(=O)(=O)C1CC1` (some centres unmarked) [Compound 46], the IC50 in assay [2] (setting [3]) was 0.15 to 15 µM.

For `C=CC1CC1(NC(=O)[C@@H]1C[C@@H](NC(=O)N2CCc3ccccc3C2)CN1C(=O)[C@@H](NC(=O)CC1CC1)C(C)(C)C)C(=O)NS(=O)(=O)C1CC1` (some centres unmarked) [Compound 54], the IC50 in assay [2] (setting [3]) was 0.15 to 15 µM.

As to `C=CC1CC1(NC(=O)[C@@H]1C[C@@H](N2CCN(Cc3ccccc3)CC2)CN1C(=O)[C@@H](NC(=O)OC)C(C)(C)C)C(=O)NS(=O)(=O)C1CC1` (some centres unmarked) [Compound 56], the IC50 in assay [2] (setting [4]) is greater than 15 µM.

`C=CC1CC1(NC(=O)[C@@H]1C[C@@H](N2Cc3ccccc3C2)CN1C(=O)[C@@H](NC(=O)C1CC1)C(C)(C)C)C(=O)NS(=O)(=O)C1CC1` (some centres unmarked) [Compound 57]: the IC50 in assay [2] (setting [4]) lay within 0.15 to 15 µM.

Source of the values: patent US7601686B2, “Hepatitis C virus inhibitors” (Bristol-Myers Squibb Company, priority 2005, dated 2009).
